Experimental data from patent publication US12377104B1, “Methods for treating a fatty liver disease” (Madrigal Pharmaceuticals, Inc., priority 2024, dated 2025).
Read-outs that look alike come from different tables or passages of the source.

Experiment: Resmetirom exposure parameters by dose, quartile and body weight
Format: in vivo, human
Conditions: for AUC / Cmax: human, in vivo, oral
Description: Various body weight cutoffs for dosing were evaluated.

For `CC(C)c1cc(Oc2c(Cl)cc(-n3nc(C#N)c(=O)[nH]c3=O)cc2Cl)n[nH]c1=O` [Resmetirom, 2-(3,5-dichloro-4-((5-isopropyl-6-oxo-1,6-dihydropyridazin-3-yl)oxy)phenyl)-3,5-dioxo-2,3,4,5-tetrahydro-1,2,4-triazine-6-carbonitrile], the “t1/2α Geometric Mean” value (100 mg, <80 kg) was 1.26 h, the “t1/2α Mean” value (100 mg, <80 kg) was 1.47 h and the “t1/2α Median” value (100 mg, <80 kg) was 1.44 h. The “t1/2β Geometric Mean” value (100 mg, <80 kg) was 5.36 h, the “t1/2β Mean” value (100 mg, <80 kg) was 6.85 h and the “t1/2β Median” value (100 mg, <80 kg) was 4.41 h. The “Percentage of Cave,ss in quartile” value (100 mg; Q1: [20-155) ng/mL) was 19%, the “Percentage of Cave,ss in quartile” value (100 mg; Q2: [155-219) ng/mL) was 19% and the “Percentage of Cave,ss in quartile” value (100 mg; Q3: [219-321) ng/mL) was 28%. For the same compound, the “Percentage of Cave,ss in quartile” value (100 mg, Q4: [321-1326] ng/mL) was 34%, the “Cmin,ss Geometric Mean” value (100 mg, ≥110 kg) was 16.2 ng/mL and the “Cmin,ss Mean” value (100 mg, ≥110 kg) was 43.4 ng/mL. The “Cmin,ss Median” value (100 mg, ≥110 kg) was 12.8 ng/mL, the “t1/2α Geometric Mean” value (100 mg, ≥110 kg) was 1.24 h and the “t1/2α Mean” value (100 mg, ≥110 kg) was 1.38 h. The “t1/2α Median” value (100 mg, ≥110 kg) was 1.30 h, the “t1/2β Geometric Mean” value (100 mg, ≥110 kg) was 5.32 h and the “t1/2β Mean” value (100 mg, ≥110 kg) was 6.33 h. For the same compound, the “t1/2β Median” value (100 mg, ≥110 kg) was 4.50 h, the AUC (80 mg, 80-<90 kg, read-out: AUCtau,ss Geometric Mean) was 6010 ng·h/mL and the AUC (80 mg, 80-<90 kg, read-out: AUCtau,ss Mean) was 6660 ng·h/mL. It also gave an AUC (80 mg, 80-<90 kg, read-out: AUCtau,ss Median) of 5750 ng·h/mL, a Cmax (80 mg, 80-<90 kg, read-out: Cmax,ss Geometric Mean) of 816 ng/mL and a Cmax (80 mg, 80-<90 kg, read-out: Cmax,ss Mean) of 869 ng/mL. For the same compound, the Cmax (80 mg, 80-<90 kg, read-out: Cmax,ss Median) was 870 ng/mL, the AUC (80 mg, 90-<100 kg, read-out: AUCtau,ss Geometric Mean) was 5060 ng·h/mL and the AUC (80 mg, 90-<100 kg, read-out: AUCtau,ss Mean) was 5790 ng·h/mL. For the same compound, the AUC (80 mg, 90-<100 kg, read-out: AUCtau,ss Median) was 5030 ng·h/mL, the Cmax (80 mg, 90-<100 kg, read-out: Cmax,ss Geometric Mean) was 745 ng/mL and the Cmax (80 mg, 90-<100 kg, read-out: Cmax,ss Mean) was 789 ng/mL. It also gave a Cmax (80 mg, 90-<100 kg, read-out: Cmax,ss Median) of 795 ng/mL, an AUC (80 mg, 100-<110 kg, read-out: AUCtau,ss Geometric Mean) of 4370 ng·h/mL and an AUC (80 mg, 100-<110 kg, read-out: AUCtau,ss Mean) of 4740 ng·h/mL. The AUC (80 mg, 100-<110 kg, read-out: AUCtau,ss Median) was 4400 ng·h/mL, the Cmax (80 mg, 100-<110 kg, read-out: Cmax,ss Geometric Mean) was 624 ng/mL and the Cmax (80 mg, 100-<110 kg, read-out: Cmax,ss Mean) was 654 ng/mL. The Cmax (80 mg, 100-<110 kg, read-out: Cmax,ss Median) was 644 ng/mL, the AUC (80 mg, <80 kg, read-out: AUCtau,ss Geometric Mean) was 8080 ng·h/mL and the AUC (80 mg, <80 kg, read-out: AUCtau,ss Mean) was 9230 ng·h/mL. The AUC (80 mg, <80 kg, read-out: AUCtau,ss Median) was 8180 ng·h/mL, the Cmax (80 mg, <80 kg, read-out: Cmax,ss Geometric Mean) was 1120 ng/mL and the Cmax (80 mg, <80 kg, read-out: Cmax,ss Mean) was 1210 ng/mL. The Cmax (80 mg, <80 kg, read-out: Cmax,ss Median) was 1140 ng/mL, the AUC (80 mg, ≥110 kg, read-out: AUCtau,ss Geometric Mean) was 3470 ng·h/mL and the AUC (80 mg, ≥110 kg, read-out: AUCtau,ss Mean) was 3750 ng·h/mL. The AUC (80 mg, ≥110 kg, read-out: AUCtau,ss Median) was 3550 ng·h/mL, the Cmax (80 mg, ≥110 kg, read-out: Cmax,ss Geometric Mean) was 489 ng/mL and the Cmax (80 mg, ≥110 kg, read-out: Cmax,ss Mean) was 520 ng/mL. For the same compound, the Cmax (80 mg, ≥110 kg, read-out: Cmax,ss Median) was 504 ng/mL, the AUC (100 mg, 80-<90 kg, read-out: AUCtau,ss Geometric Mean) was 8550 ng·h/mL and the AUC (100 mg, 80-<90 kg, read-out: AUCtau,ss Mean) was 9660 ng·h/mL. It also gave an AUC (100 mg, 80-<90 kg, read-out: AUCtau,ss Median) of 7550 ng·h/mL, a Cmax (100 mg, 80-<90 kg, read-out: Cmax,ss Geometric Mean) of 1160 ng/mL and a Cmax (100 mg, 80-<90 kg, read-out: Cmax,ss Mean) of 1220 ng/mL. It also gave a Cmax (100 mg, 80-<90 kg, read-out: Cmax,ss Median) of 1200 ng/mL, an AUC (100 mg, 90-<100 kg, read-out: AUCtau,ss Geometric Mean) of 7990 ng·h/mL and an AUC (100 mg, 90-<100 kg, read-out: AUCtau,ss Mean) of 9010 ng·h/mL. The AUC (100 mg, 90-<100 kg, read-out: AUCtau,ss Median) was 7600 ng·h/mL, the Cmax (100 mg, 90-<100 kg, read-out: Cmax,ss Geometric Mean) was 954 ng/mL and the Cmax (100 mg, 90-<100 kg, read-out: Cmax,ss Mean) was 1010 ng/mL. For the same compound, the Cmax (100 mg, 90-<100 kg, read-out: Cmax,ss Median) was 1060 ng/mL, the AUC (100 mg, 100-<110 kg, read-out: AUCtau,ss Geometric Mean) was 6690 ng·h/mL and the AUC (100 mg, 100-<110 kg, read-out: AUCtau,ss Mean) was 7430 ng·h/mL. It also gave an AUC (100 mg, 100-<110 kg, read-out: AUCtau,ss Median) of 6250 ng·h/mL, a Cmax (100 mg, 100-<110 kg, read-out: Cmax,ss Geometric Mean) of 905 ng/mL and a Cmax (100 mg, 100-<110 kg, read-out: Cmax,ss Mean) of 958 ng/mL. The Cmax (100 mg, 100-<110 kg, read-out: Cmax,ss Median) was 966 ng/mL, the AUC (100 mg, <80 kg, read-out: AUCtau,ss Geometric Mean) was 8680 ng·h/mL and the AUC (100 mg, <80 kg, read-out: AUCtau,ss Mean) was 10800 ng·h/mL. The AUC (100 mg, <80 kg, read-out: AUCtau,ss Median) was 9610 ng·h/mL, the Cmax (100 mg, <80 kg, read-out: Cmax,ss Geometric Mean) was 1120 ng/mL and the Cmax (100 mg, <80 kg, read-out: Cmax,ss Mean) was 1310 ng/mL. For the same compound, the Cmax (100 mg, <80 kg, read-out: Cmax,ss Median) was 1370 ng/mL, the AUC (100 mg, ≥110 kg, read-out: AUCtau,ss Geometric Mean) was 4330 ng·h/mL and the AUC (100 mg, ≥110 kg, read-out: AUCtau,ss Mean) was 4940 ng·h/mL. For the same compound, the AUC (100 mg, ≥110 kg, read-out: AUCtau,ss Median) was 3900 ng·h/mL, the Cmax (100 mg, ≥110 kg, read-out: Cmax,ss Geometric Mean) was 575 ng/mL and the Cmax (100 mg, ≥110 kg, read-out: Cmax,ss Mean) was 642 ng/mL. For the same compound, the Cmax (100 mg, ≥110 kg, read-out: Cmax,ss Median) was 647 ng/mL.
